Source: PubChem BioAssay AID2060347 (Molecular Pharmacology Branch, DTP, NCI, 2025)
Values joined by “and” are separate entries in the source; they are usually repeats but may differ in a detail not shown here. Identical values can stand only once.

Test system: 817829-284-R-J1-PDC spheroids with HUVEC/MSC, viability
Experiment: Anticancer human tumor 817829-284-R-J1-PDC patient-derived colon adenocarcinoma cell line growth inhibition [TAK]
Conditions: for viability, T/C: stronger effect = lower value
Excerpt: Combinatorial screen of targeted agents with TAK-243 and ipatasertib in multi-cell type tumor spheroids
A high-throughput screen of multi-cell type tumor spheroids was designed to identify active combinations of targeted small molecules and TAK-243 or ipatasertib. Complex spheroids include a stromal component modeled by human endothelial cells (HUVEC) and fibroblasts modeled by human mesenchymal stem cells (MSCs). The concentration ranges selected for each drug and investigational agent were based upon clinically achievable concentrations if the clinical Cmax of the agent was known.
Compounds. The drugs and investigational agents: TAK-243 (785004), ipatasertib (767898), everolimus (733504), selumetinib (741078), bortezomib (756655), trametinib (758246), ixazomib (758254), vemurafenib (761431), dabrafenib (764134), sapanisertib (764658), alpelisib (765974), and copanlisib (816437), were obtained from the National Cancer Institute (NCI) Developmental Therapeutics Program Chemical Repository. The FDA-approved anticancer drug set is available from the NCI Developmental Therapeutics Program. […] The stock solutions were prepared in dimethyl sulfoxide (DMSO, Sigma-Aldrich, St. Louis, MO, cat. D2650) at 800-fold the tested concentration and stored at -70 degrees C prior to their use. All drugs and investigational agents were tested over a range starting from a high concentration at or near the clinical Cmax and decreasing in half-log increments. If the clinical Cmax for an agent had not been determined, the highest concentration tested was 10 microM.
NCI60 Cell Culture. NCI60 cell lines were obtained from the NCI Developmental Therapeutics Program Tumor Repository. For each lot of cells, the Repository performed Applied Biosystems AmpFLSTR Identifiler testing with PCR amplification to confirm consistency with the published Identifier STR profile for each cell line. Cells were kept in continuous culture for no more than 20 passages. The optimal seeding densities for each of the cell lines at each time point assessed were determined prior to performing the concentration response studies. Briefly, the NCI60 human tumor lines were grown as monolayers in RPMI 1640 medium supplemented with 10% FBS and 2 mmol/L L-glutamine.
An additional 2 lines were from the NCI60 cell line panel including melanomas, MALME-3M and SK-MEL-2. Pooled donor human umbilical vein endothelial cells (HUVEC, Lonza, cat. CC-2519) and human mesenchymal stem cells (hMSC, Lonza, cat. PT-2501) were purchased from Lonza (Walkersville, MD).
PDMR cell lines were grown in complete medium (DC medium): Dulbecco's modified Eagle's medium (DMEM)/F12 supplemented with 5% fetal bovine serum (FBS), 2 mM L-glutamine, 100 U/mL penicillin and 100 µg/ml streptomycin, 0.4 µg/ml hydrocortisone, 10 ng/ml epidermal growth factor (EGF) recombinant human protein, 24 µg/mL adenine, and 0.1 mg/mL primocin. During culture from frozen stock vials, PDMR cells were cultured in the same medium containing 10 µM Y-27632 (see Table 3). The PDCs were cultured in complete DMEM/F12 media without 10 microM Y-27632 dihydrochloride for at least two passages prior to the screen. The pooled donor HUVEC and hMSC were cultured in endothelial cell growth medium 2 (PromoCell, Heidelberg, Germany, cat. C-22011) and mesenchymal stem cell growth medium 2 (PromoCell, cat. C-28009), respectively. For all experiments, HUVEC and hMSC were used at passages </=5.
For the pre-screen, cell seeding densities were determined from a titration spanning the range from 5,000 to 313 cells per well. The mct-spheroids including 60% malignant cells, 25% HUVEC and 15% MSC dispensed as a mixture into U-bottom Ultra-Low Attachment 384-well plates (Corning, NY)
High-throughput Drug Combination Screening.
Prior to their inoculation into 384-well plates, malignant cells, HUVEC, and hMSC were removed from T flasks using TrypLE express (Thermo Fisher Scientific, cat. 12605036) and harvested by centrifugation for 5 min at 233 x g. […]

[1] = curve of first compound, second compound 0.3 µM
[2] = curve of first compound, second compound 0.949 µM
[3] = curve of first compound, second compound 3 µM
[4] = curve of first compound, second compound 9.49 µM
[5] = curve of first compound, second compound 30 µM

SMILES: CC(C)CC(NC(=O)C(Cc1ccccc1)NC(=O)c1cnccn1)B(O)O (centres undefined) + CC(C)NCC(C(=O)N1CCN(c2ncnc3c2C(C)CC3O)CC1)c1ccc(Cl)cc1
- IC50 [1]: 4.91 nM
- IC50 [2]: 4.23 nM
- IC50 [3]: < 0.0316 nM
- IC50 [4]: < 0.0316 nM
- IC50 [5]: < 0.0316 nM
- viability, T/C (second compound 0.3 µM, first compound 31.6 pM): 108%
- viability, T/C (second compound 0.3 µM, first compound 0.0001 µM): 104%
- viability, T/C (second compound 0.3 µM, first compound 0.000316 µM): 105%
- viability, T/C (second compound 0.3 µM, first compound 0.001 µM): 100%
- viability, T/C (second compound 0.3 µM, first compound 0.00316 µM): 80.7%
- viability, T/C (second compound 0.3 µM, first compound 0.01 µM): 0.6%
- viability, T/C (second compound 0.949 µM, first compound 31.6 pM): 88%
- viability, T/C (second compound 0.949 µM, first compound 0.0001 µM): 60.8%
- viability, T/C (second compound 0.949 µM, first compound 0.000316 µM): 64.6%
- viability, T/C (second compound 0.949 µM, first compound 0.001 µM): 77.2%
- viability, T/C (second compound 0.949 µM, first compound 0.00316 µM): 66.7%
- viability, T/C (second compound 0.949 µM, first compound 0.01 µM): 0.35%
- viability, T/C (second compound 3 µM, first compound 31.6 pM): 29.4%
- viability, T/C (second compound 3 µM, first compound 0.0001 µM): 22.9%
- viability, T/C (second compound 3 µM, first compound 0.000316 µM): 29.9%
- viability, T/C (second compound 3 µM, first compound 0.001 µM): 22.3%
- viability, T/C (second compound 3 µM, first compound 0.00316 µM): 19.9%
- viability, T/C (second compound 3 µM, first compound 0.01 µM): 0.2%
- viability, T/C (second compound 9.49 µM, first compound 31.6 pM): 12.7%
- viability, T/C (second compound 9.49 µM, first compound 0.0001 µM): 13.2%
- viability, T/C (second compound 9.49 µM, first compound 0.000316 µM): 11.6%
- viability, T/C (second compound 9.49 µM, first compound 0.001 µM): 13.6%
- viability, T/C (second compound 9.49 µM, first compound 0.00316 µM): 8.78%
- viability, T/C (second compound 9.49 µM, first compound 0.01 µM): 0.15%
- viability, T/C (second compound 30 µM, first compound 31.6 pM): 8.2%
- viability, T/C (second compound 30 µM, first compound 0.0001 µM): 8.27%
- viability, T/C (second compound 30 µM, first compound 0.000316 µM): 10.2%
- viability, T/C (second compound 30 µM, first compound 0.001 µM): 9.25%
- viability, T/C (second compound 30 µM, first compound 0.00316 µM): 6.13%
- viability, T/C (second compound 30 µM, first compound 0.01 µM): 0.2%

SMILES: CC(=O)Nc1cccc(-n2c(=O)n(C3CC3)c(=O)c3c(Nc4ccc(I)cc4F)n(C)c(=O)c(C)c32)c1
- viability, T/C (compound 94.9 pM): 104% and 103%
- viability, T/C (compound 0.0003 µM): 93% and 94.2%
- viability, T/C (compound 0.000949 µM): 85.1% and 82.9%
- viability, T/C (compound 0.003 µM): 65.9% and 53.9%
- viability, T/C (compound 0.00949 µM): 25.9% and 33.9%
- viability, T/C (compound 0.03 µM): 10.8% and 11%
- IC50 (curve of compound): 4.58 nM and 4.15 nM

SMILES: CC(C)NCC(C(=O)N1CCN(c2ncnc3c2C(C)CC3O)CC1)c1ccc(Cl)cc1 (centres undefined)
- viability, T/C (compound 3 µM): 15.9% [middle of 10 runs]
- viability, T/C (compound 9.49 µM): 11.2% [middle of 10 runs]
- viability, T/C (compound 30 µM): 6.54% [middle of 10 runs]
- IC50 (compound alone, run of 02/28/2020): 1.55 µM [middle of 6 runs]
- IC50 (compound alone, run of 03/19/2020): 665 nM [middle of 4 runs]

SMILES: COc1c(OCCCN2CCOCC2)ccc2c3n(c(=NC(=O)c4cnc(N)nc4)nc12)CCN3
- viability, T/C (compound 0.00316 µM): 104% and 105%
- viability, T/C (compound 0.01 µM): 90.7% and 96.1%
- viability, T/C (compound 0.0316 µM): 63.8% and 44.4%
- viability, T/C (compound 0.1 µM): 18.7% and 13.9%
- viability, T/C (compound 0.316 µM): 3.92% and 2.94%
- viability, T/C (compound 1 µM): 2.85% and 3.44%
- IC50 (curve of compound): 44 nM and 28.7 nM

SMILES: Cn1cnc2c(F)c(Nc3ccc(Br)cc3Cl)c(C(=O)NOCCO)cc21 + CC(C)NCC(C(=O)N1CCN(c2ncnc3c2C(C)CC3O)CC1)c1ccc(Cl)cc1
- IC50 [1]: 11.5 nM
- IC50 [2]: < 9.49 nM
- IC50 [3]: < 9.49 nM
- IC50 [4]: < 9.49 nM
- IC50 [5]: < 9.49 nM
- viability, T/C (second compound 0.3 µM, first compound 0.00949 µM): 53.8%
- viability, T/C (second compound 0.3 µM, first compound 0.03 µM): 36.5%
- viability, T/C (second compound 0.3 µM, first compound 0.0949 µM): 40.4%
- viability, T/C (second compound 0.3 µM, first compound 0.3 µM): 23.4%
- viability, T/C (second compound 0.3 µM, first compound 0.949 µM): 17.4%
- viability, T/C (second compound 0.3 µM, first compound 3 µM): 9.69%
- viability, T/C (second compound 0.949 µM, first compound 0.00949 µM): 17.6%
- viability, T/C (second compound 0.949 µM, first compound 0.03 µM): 15.9%
- viability, T/C (second compound 0.949 µM, first compound 0.0949 µM): 13.8%
- viability, T/C (second compound 0.949 µM, first compound 0.3 µM): 12.9%
- viability, T/C (second compound 0.949 µM, first compound 0.949 µM): 12.6%
- viability, T/C (second compound 0.949 µM, first compound 3 µM): 10.6%
- viability, T/C (second compound 3 µM, first compound 0.00949 µM): 9.45%
- viability, T/C (second compound 3 µM, first compound 0.03 µM): 10.2%
- viability, T/C (second compound 3 µM, first compound 0.0949 µM): 8.2%
- viability, T/C (second compound 3 µM, first compound 0.3 µM): 9.01%
- viability, T/C (second compound 3 µM, first compound 0.949 µM): 8.23%
- viability, T/C (second compound 3 µM, first compound 3 µM): 6.8%
- viability, T/C (second compound 9.49 µM, first compound 0.00949 µM): 6.1%
- viability, T/C (second compound 9.49 µM, first compound 0.03 µM): 6.4%
- viability, T/C (second compound 9.49 µM, first compound 0.0949 µM): 5.55%
- viability, T/C (second compound 9.49 µM, first compound 0.3 µM): 5.64%
- viability, T/C (second compound 9.49 µM, first compound 0.949 µM): 4.81%
- viability, T/C (second compound 9.49 µM, first compound 3 µM): 4.12%
- viability, T/C (second compound 30 µM, first compound 0.00949 µM): 4.35%
- viability, T/C (second compound 30 µM, first compound 0.03 µM): 3.94%
- viability, T/C (second compound 30 µM, first compound 0.0949 µM): 3.58%
- viability, T/C (second compound 30 µM, first compound 0.3 µM): 3.91%
- viability, T/C (second compound 30 µM, first compound 0.949 µM): 2.71%
- viability, T/C (second compound 30 µM, first compound 3 µM): 2.38%
